Results on 8 molecules are retold here after patent US6080771A, “DC107 derivatives” (Kyowa Hakko Kogyo Co., Ltd., priority 1996, dated 2000).

One series concerns Escherichia coli ATCC 26. Briefly: Antimicrobial activity, agar dilution method (MIC), EC. The format is cell-based. An excerpt:
| EC: Escherichia coli ATCC 26

The test system of series [1] is Klebisiella pneumoniae ATCC 10031. Briefly: Antimicrobial activity, agar dilution method (MIC), KP. In kind it is cell-based. The following applies: agar dilution, pH 7; read-out: MIC, KP. An excerpt: | KP: Klebisiella pneumoniae ATCC 10031
In general terms: In agar dilution the substance is mixed into plates at graded concentrations.

Series [2] deals with Enterococcus hirae ATCC 10541. Briefly: Antimicrobial activity, agar dilution method (MIC), EH. The following applies: pH 7.
Procedure: (§1) Antimicrobial activity was determined by the agar dilution method using a culture medium (pH 7) prepared by dissolving 3 g of Bacto-Tryptone (manufactured by Difco, Co.), 3 g of meat extract, 1 g of yeast extract, 1 g of glucose, and 16 g of agar in 1 l of water.
EH: Enterococcus hirae ATCC 10541
For another series, the system named is HeLa S3 cells. Briefly: HeLa S3 cell growth inhibition test (Neutral Red). In kind it is cell-based. The following applies: Homo sapiens, read-out: HeLa S3 Cell Growth Inhibition Activity, IC50. How it is done:
In each well of a 96-well microtiter plate was placed 0.1 mL of HeLa S3 cells having a concentration of 8×10^3 cells/mL and prepared in an MEM culture medium containing 10% fetal bovine serum and 2 mM glutamine. After the cells were incubated overnight at 37° C. in a carbon dioxide incubator, a test compound suitably diluted with a medium was added to the wells in an amount of 0.05 mL for each well. The cells were incubated at 37° C. for 72 hours in a carbon dioxide incubator. After the culture supernatant was removed, 0.1 mL of a culture medium containing 0.02% Neutral Red was added to each well. The cells were then incubated at 37° C. for 1 hour in a carbon dioxide incubator to dye the cells. After the culture supernatant was removed, each residue was rinsed once with physiological saline and the pigment was extracted with 0.001N hydrochloric acid/30% ethanol. The absorbance at 550 nm of each extract was measured with a microplate reader. The drug concentration required for the 50% inhibition of cell growth, which is referred to as IC50, was calculated by comparing the absorbance for untreated cells with those for cells treated with the drug in known concentrations.

The test system of series [3] is Staphylococcus aureus ATCC 6538P. Briefly: Antimicrobial activity, agar dilution method (MIC), SA. In kind it is cell-based. The following applies: ATCC6538P, agar dilution, pH 7, read-out: MIC, SA. An excerpt: | SA: Staphylococcus aureus ATCC 6538P
Series [4] deals with Bacillus substilis NO. 10707. Briefly: Antimicrobial activity, agar dilution method (MIC), BS. In kind it is cell-based. The following applies: NO.10707, agar dilution, pH 7, read-out: MIC, BS. An excerpt:
| BS: Bacillus substilis NO. 10707

For series [5], the system named is Sarcoma 180 mouse solid tumor. Briefly: Antitumor activity against Sarcoma 180 mouse solid tumor. In kind it is in vivo, male ddY mice. The following applies: Sarcoma-180, iv, 168 h, single i.v., tumor volume on day 7 from transplant, read-out: T/C (tumor volume ratio treated/control). How it is done: To a ddY mouse were intraperitoneally transplanted 5×10^6 sarcoma 180 cells. On the seventh day from the transplant, the cells were collected from the ascites, washed once with sterilized physiological saline, and then diluted with sterilized physiological saline to prepare a cell suspension having a concentration of 5×10^7 cells/mL. This suspension was transplanted in an amount of 0.01 mL to a subcutaneous part of the right axilla of each of male ddY mice each weighing 20±1 g.
A test compound was dissolved in physiological saline containing polyoxyethylene sorbitan monolaurate. At 24 hours after the tumor transplant, 0.2 mL of the solution was intravenously administered to the tail of each of a group of five mice.

For series [6] the following is noted: background, Japanese Published Unexamined Patent Application No. 112988/89; cited from earlier work.
The next series relates to various bacteria. The following applies: background, Japanese Published Unexamined Patent Application No. 112988/89; cited from earlier work.
The subject of series [7] is Enterococcus hirae ATCC 10541. The following applies: pH 7.
Procedure: as §1
EH: Enterococcus hirae ATCC 10541
Setting [8] is: ATCC26, agar dilution, pH 7, read-out: MIC, EC.
Setting [9] is: ATCC26, pH 7, read-out: MIC, EC.

In brackets after ≈: the same amount, converted by molar mass. Like-named read-outs stand apart in the source and are kept apart here.

As usually defined, the MIC is the least concentration at which growth counts as inhibited. For orientation: IC50 means the concentration that inhibits the measured activity by half. `CC(=O)OCC1OC(OC2C=C(C)CCC3(CC(=O)NC(C)c4nc(cs4)C=CC=CC2=O)[S+]([O-])SC(=O)C3(C)O)C=CC1OC(C)=O` (centres unmarked) [Compound 50]: the MIC in the series on Escherichia coli ATCC 26 (setting [8]) was determined as 0.16 µg/mL (≈ 0.221 µM); in series [1], 0.16 µg/mL (≈ 0.221 µM); in series [3] it was 0.02 µg/mL (≈ 0.0277 µM); in series [4], 0.02 µg/mL (≈ 0.0277 µM). For the same molecule, the “MIC, EH” value in series [2] stood at 0.020 µg/mL (≈ 0.0277 µM). Moreover, the IC50 in the series with HeLa S3 cells (HeLa S3, 72 hours, 37° C.) is 3.5 nM.
As for `CC(=O)O[C@@H]1C=CC(OC2/C=C(\C)CCC3(CC(=O)NC(C)c4nc(cs4)/C=C\C=C\C2=O)[S+]([O-])SC(=O)C3(C)O)O[C@H]1C` (some centres unmarked) [Compound 57], the MIC is 0.52 µg/mL (≈ 0.782 µM) in the series on Escherichia coli ATCC 26 (setting [9]), 0.26 µg/mL (≈ 0.391 µM) in series [1], 0.13 µg/mL (≈ 0.196 µM) in series [3] and 0.033 µg/mL (≈ 0.0496 µM) in [4]. Further, in [2], the “MIC, EH” value amounted to 0.13 µg/mL (≈ 0.196 µM). Also, the IC50 with HeLa S3 cells (HeLa S3, 72 h) was 16 nM.
In the case of `COCCOCCOCCOCCOCCOCC(=O)OC1/C=C(\C)CCC2(CC(=O)NC(C)c3nc(cs3)/C=C\C=C\C1=O)[S+]([O-])SC(=O)C2(C)O` (centres unmarked) [Compound 5], the MIC in the series with Escherichia coli ATCC 26 (setting [9]) came to 3.1 µg/mL (≈ 3.86 µM); in series [1], 0.39 µg/mL (≈ 0.486 µM); in [3] it was 0.4 µg/mL (≈ 0.498 µM); in series [4], 0.2 µg/mL (≈ 0.249 µM). Further, the “MIC, EH” value in series [2] is 0.20 µg/mL (≈ 0.249 µM). Besides, the IC50 with HeLa S3 cells (HeLa S3, 72 h) worked out at 67 nM. In addition, the response vs control in vivo at 8 mg/kg in series [5] was 30%.
Take `C/C1=C\C(O)C(=O)/C=C/C=C\c2csc(n2)C(C)NC(=O)CC2(CC1)[S+]([O-])SC(=O)C2(C)O` (centres unmarked) [DC107]: the antitumor activity entry in [6] is on record as “antitumor activity”. For the same molecule, in the series with various bacteria, the antimicrobial activity entry is “antimicrobial activity against various bacteria”.
Consider `COCCOCCOCC(=O)OC1/C=C(\C)CCC2(CC(=O)NC(C)c3nc(cs3)/C=C\C=C\C1=O)[S+]([O-])SC(=O)C2(C)O` (centres unmarked) [Compound 2], for which the MIC worked out at 1.8 µg/mL (≈ 2.68 µM) in the series with Escherichia coli ATCC 26 (setting [8]), 0.23 µg/mL (≈ 0.343 µM) in series [1], 0.13 µg/mL (≈ 0.194 µM) in series [3] and 0.13 µg/mL (≈ 0.194 µM) in [4]. Also, the “MIC, EH” value in [7] was determined as 0.23 µg/mL (≈ 0.343 µM). Besides, the IC50 in the series with HeLa S3 cells (HeLa S3, 72 hours, 37° C.) is 25 nM. Also, the response vs control in vivo at 4 mg/kg in [5] (4.0 mg/kg) is 30%.
As to `COCCOCCOCC(=O)OCCOCCOCCOCCOCC(=O)OC1/C=C(\C)CCC2(C(C)(O)C(=O)SCc3oc(=O)oc3C)CC(=O)N(C(C)c3nc(cs3)/C=C\C=C\C1=O)[S+]2[O-]` (centres unmarked) [Compound 39], the values for the MIC in series [1], in [3] and in series [4] were 2.6 µg/mL (≈ 2.56 µM), 5.2 µg/mL (≈ 5.11 µM) and 2.6 µg/mL (≈ 2.56 µM), respectively. For the same molecule, the “MIC, EH” value in series [7] turned out to be 1.3 µg/mL (≈ 1.28 µM). Further, the response vs control in vivo at 16 mg/kg in [5] (16 mg/kg) is 38%.
As to `COCCOCCOCC(=O)OC1/C=C(\C)CCC2(C(C)(O)C(=O)SCc3oc(=O)oc3C)CC(=O)N(C(C)c3nc(cs3)/C=C\C=C\C1=O)[S+]2[O-]` (centres unmarked) [Compound 12], the MIC amounted to 4.2 µg/mL (≈ 5.36 µM) in the series with Escherichia coli ATCC 26 (setting [8]), 42 µg/mL (≈ 53.6 µM) in series [1], 42 µg/mL (≈ 53.6 µM) in series [3] and 42 µg/mL (≈ 53.6 µM) in [4]. The “MIC, EH” value in [7] was determined as 42 µg/mL (≈ 53.6 µM). Moreover, the IC50 in the series with HeLa S3 cells (HeLa S3, 72 hours, 37° C.) was determined as 30 nM. Also, the response vs control in vivo at 8 mg/kg in series [5] came to 39%.
`COCCOCCOCCOCCOCC(=O)OC1/C=C(\C)CCC2(C(C)(O)C(=O)SCc3oc(=O)oc3C)CC(=O)N(C(C)c3nc(cs3)/C=C\C=C\C1=O)[S+]2[O-]` (centres unmarked) [Compound 14]: in series [7], the “MIC, EH” value came to 2.6 µg/mL (≈ 2.99 µM). For the same molecule, the IC50 with HeLa S3 cells (HeLa S3, 72 hours, 37° C.) is 35 nM. For the same molecule, the MIC in [3] worked out at 5.2 µg/mL (≈ 5.97 µM); in series [4] it was 2.6 µg/mL (≈ 2.99 µM).
